Measurements from US11046753B2, “Antibody composition and buffer system therefor” (INNOVA BIOSCIENCES LTD, priority 2013, dated 2021).
“Also recorded” adds a separate entry of the source.

How the values were obtained:
[1] = Carbodiimide (EDC)-mediated conjugation of goat anti-rabbit IgG to carboxylated gold nanoparticles in presence of additive, read by lateral flow assay
Method: Molecules were tested initially at pH 5 in EDC-mediated reactions with carboxylated gold particles (InnovaCoat GOLD, Innova Biosciences). Potentially interesting molecules from this screening exercise were further evaluated in NHS ester reactions, isothiocyanate reactions and thiolation reactions involving iminothiolane. All of these reactions are widely used in the antibody conjugation field and all would be expected to suffer from interference in the presence of glycine.
Lateral flow test strips (4 mm wide) were prepared from nitrocellulose membrane (Millipore Hi Flow plus 90) striped with goat anti-rabbit IgG (test line) and biotin-BSA (control line). Strips were housed in plastic cartridges and samples of gold conjugate (80 ul) were added to the sample pad. Cartridges were allowed to stand for 30 min and then read using a ESE-Quant GOLD reader—QIAGEN. Each sample was spiked with a fixed amount of streptavidin-gold (Innova biosciences—Product code: 250-0200), which binds to the control line, to check that each test strip had run correctly and that test line data was valid.
10 μg of goat anti-rabbit IgG (GAR) was used per ml of coated 40 nm nanoparticles with carboxyl functionality (InnovaCoat GOLD, Innova Biosciences) at […] in the presence of additives at 50 mM final concentration. Typically reactions were set up with the following additions: 40 μl of 40 nm InnovaCoat (carboxylated) gold nanopartcles, were incubated 5 minutes with 4 μl 0.1 mg/ml GAR, 20 μl water, and 80 μl of 100 mM MES buffer containing 100 mM of additive, pH 5.0. Next, 16 μl of 1 mM EDC was added and after 10 min incubation at 22° C., 20 μl of 10×TBS/1% Tween20 and 20 μl of water was added to give 2 OD conjugate.
Gold conjugates were mixed when required with rabbit IgG ((final concentration 50 ng/ml) at 22° C. Conjugates were 0.2 OD final concentration (i.e. 1/10 dilution from stock conjugates). Samples were run in triplicate on lateral flow test strips as described in Example 1.

[2] = 25° C., cited from earlier work; for pKa (COOH): Table 1; for pKa of buffer: neutralisation / catch / wash buffers
[3] = Lightning-Link fluorescein conjugation of goat anti-rabbit IgG in presence of additive, fluorescence assay; conditions: 50 mM additive; for % of control: conjugate 1/100 dilution, additive-free control 100%
Method: (§1) Black 96-well plates (Greiner Bio-One (code 655077)) were incubated with 50 ul rabbit IgG (1 ug/well) overnight at 4° C. The plates were blocked with TBS/0.1% BSA for 1 hour at room temperature and washed five times with TBS (wash buffer). Fluorescent antibody conjugates were serially diluted in TBS/0.1% BSA and 50 ul aliquots were added to wells in triplicate. After incubation at room temperature for 1 hour, the plate was washed five times and fluorescence emission was read in using a Tecan Infinite M200 plate reader with i-Control 1.4 software with the appropriate excitation/emission settings (fluorescein, 490 nm/535 nm; phycoeythrin, 535 nm/575 nm. Fluorescence data was plotted as a function of conjugate dilution. To compare results for additives tested in different experiments the data were transformed into a percentage of a control value (i.e. the signal for conjugate prepared in the absence of any test additive).
Reactions were carried out according to the manufacturer's standard protocol except that the additives were included at up to 50 mM concentration in conjugation reactions of Goat-anti-rabbit IgG using fluorescein Lightning-Link kit (product code 707-0010, Innova Biosciences, UK). Conjugates were tested according to the protocol described in Example 2.

[4] = Degree of ionisation of the acid group at pH 5 (Henderson-Hasselbach); format: physicochemical
[5] = Effect of additives on the thiolation reagent 2-iminothiolane (thiol release, DTNB, A405); conditions: 50 mM additive, pH 8.0, 30 minutes
Method: 20 μl of 2 mM 2-iminothiolane was added to each well and mixed quickly and the absorbance values were read at 405 nm every minute for 30 minutes using a Tecan Infinite M200 plate reader with i-Control 1.4 software. […] In control reaction, there is a steady linear increase in absorbance as the reagent is hydrolysed by water. […] The rising baseline can be attributed to the known sensitivity of 2-iminothiolane to hydrolysis at alkaline pH values.

[6] = Lightning-Link phycoerythrin conjugation of goat anti-rabbit IgG in presence of tricine, fluorescence assay
Method: as §1
The method was as described in Example 4, except that the Goat anti-rabbit IgG was conjugated to the fluorescent protein phycoerythrin (PE) using a Lightning-Link PE conjugation kit (703-0005). Tricine has little effect on Lightning-Link PE conjugation reactions in the range of concentrations tested. In this case the conjugate prepared at the highest concentration of tricine (50 mM) gave a signal that was 91% of control value in the absence of additive.

[7] = additive 50 mM final, MES pH 5.0, EDC, lateral flow test line signal

Row | Compound | % of Signal [1, 7] [%] | pKa (COOH) [2] | interference in carbodiimide-mediated antibody-gold nanoparticle conjugation reaction ([1]; pH 5, EDC) | further results
1 | CCC(N)C(=O)O (racemic) [DL-2 Aminobutyric Acid] | 101 | pKa = 2.29 | – | interference in carbodiimide-mediated antibody-gold nanoparticle conjugation reaction ([1]; pH 5, EDC, listed as DL-2-aminobutyric acid): little or no effect; interference in carbodiimide-mediated antibody-gold nanoparticle conjugation reaction ([1]; pH 5, EDC, listed as DL-2 amino butyric acid): no interference; pKa of the carboxyl (acid) group [2]: 2.29
2 | [N-]=[N+]=[N-].[Na+] [0.01% NaN3, sodium azide] | 26 | pKa1 = 4.8 | caused interference | –
3 | O=C(O)c1c(O)cc(O)cc1O [2,4,6-Trihydroxy-benzoic Acid, 2,4,6-trihydroxybenzoic acid] | 0 | pKa1 = 1.68 | severe interference | –
4 | O=C(O)c1ccccn1 [2-Picolinic Acid, 2-pyridinecarboxylic acid] | 100 | pKa1 = 5.52 | – | interference in carbodiimide-mediated antibody-gold nanoparticle conjugation reaction ([1]; pH 5, EDC, listed as 2-picolinic acid): little or no effect; interference in carbodiimide-mediated antibody-gold nanoparticle conjugation reaction ([1]; pH 5, EDC, listed as picolinic acid): without effect; interference in Lightning-Link fluorescein conjugation reaction [3]: modest interference; % of control [3]: 83%; pKa of the amine group [2]: 5.52
5 | C[C@H](N)C(=O)O [Alanine] | 100 | – | little or no effect | –
6 | NCCC(=O)O [Beta-Alanine] | 92 | pKa = 3.6 | little or no effect | –
7 | O=C(O)C1CCCCC1 [Cyclohexane-carboxylic acid, cyclohexane carboxylic acid] | 71 | – | significant interference but not totally abolishing the conjugation reaction | –
8 | NCCCC(=O)O [GABA (Υ-Aminobutyric Acid), gamma-amino butyric acid] | 26 | pKa1 = 4.23 | significant interference; also recorded: significantly inhibits | acid groups ionised (COO−) [4]: 85.5%
9 | C[N+](C)(C)CC(=O)[O-] [Glycine betaine, N,N,N-trimethylglycine] | 96 | pKa = 1.83 | little or no effect | interference in Lightning-Link fluorescein conjugation reaction [3]: little or no effect; % of control [3]: 98%; release of thiols from 2-iminothiolane versus control ([5]; listed as betaine): no increase in this rate; release of thiols from 2-iminothiolane versus control ([5]; listed as glycine betaine): without effect; pKa of the carboxyl (acid) group [2]: 1.8
10 | O=S(=O)(O)CCCCN1CCN(CCO)CC1 [HEPBS, N-(2-Hydroxyethyl)piperazine-N′-(4-butanesulfonic acid)] | – | – | – | pKa of buffer [2]: 8.3
11 | CN(C)CC(=O)O [N,N- Dimethylglycine, N,N-dimethylglycine] | 110 | pKa1 = 2.06 | little or no effect | interference in Lightning-Link fluorescein conjugation reaction [3]: little or no effect; % of control [3]: 96%
12 | CNCC(=O)O [N-Methylglycine (Sarcosine), N-methylglycine] | 93 | pKa1 = 2.36 | little or no effect | –
13 | CC(=O)[O-].[Na+] [Na Acetate, sodium acetate] | – | – | – | % of Signal ([1]; pH 5): 37%; interference in carbodiimide-mediated antibody-gold nanoparticle conjugation reaction ([1]; pH 5): significant interference but not totally abolishing the conjugation reaction
14 | O=C(O)c1cccnc1 [Nicotinic Acid] | 73 | pKa1 = 2.201 | significant interference; also recorded: partial interference | pKa of the carboxyl (acid) group [2]: 2.2
15 | O=S(=O)(O)CCN1CCN(CCS(=O)(=O)O)CC1 [PIPES, piperazine-N,N′-bis(2-ethanesulfonic acid)] | – | – | – | pKa of buffer [2]: 6.76
16 | CC(C)(C)C(=O)O [Pivalic Acid] | 53 | – | significant interference but not totally abolishing the conjugation reaction; also recorded: partial inhibition | acid groups ionised (COO−) [4]: ~50%
17 | O=C(O)[C@@H]1CCCN1 [Proline] | 94 | – | little or no effect | interference in Lightning-Link fluorescein conjugation reaction [3]: significant interference; % of control [3]: 53%
18 | O=C(O)CCC(=O)O [Succinic Acid] | 0 | – | severe interference | –
19 | O=C(O)C(Cl)(Cl)Cl [TCA, trichloroacetic acid] | 0 | – | severe interference | acid groups ionised (COO−) [4]: essentially fully ionised
20 | O=C(O)CNC(CO)(CO)CO [Tricine, N-tris(hydroxymethyl)methylglycine] | 105 | pKa1 = 2.3 | little or no effect | % of control ([6]; 50 mM tricine): 91%; interference in Lightning-Link phycoerythrin conjugation reaction ([6]; up to 50 mM): little effect; also recorded: modest degree of interference; pKa of the carboxyl (acid) group [2]: ~2.3
21 | NC(CO)(CO)CO [Tris] | 19 | pKa1 = 8.07 | severe interference | –
22 | CC(=O)O [acetic acid] | – | – | greater interference in carbodiimide reactions than glycine | –
23 | Citric Acid | 0 | – | severe interference | release of thiols from 2-iminothiolane versus control ([5]; listed as Citric acid): no effect; release of thiols from 2-iminothiolane versus control ([5]; listed as citric acid): no increase in this rate
24 | Phosphate | – | – | caused interference | –
